Consider ten molecules from patent US10421774B2 (priority 2016, dated 2019).

The structures appear in SMILES notation.

Common to all, as to test: microbe, parasite or virus in culture
What all share (format): cell-based, HIV-1

In assay [1] the test system is NLRepRlucP373S recombinant wild type (WT) virus. The note with it: Human immunodeficiency virus 1, MT2, read-out: WT EC50. As for the experimental part:
(§1) Cells. MT-2 cells and 293T cells were obtained from the NIH AIDS Research and Reference Reagent Program. Cell lines were sub-cultured twice a week in either RPMI 1640 (MT-2) or DMEM (293T, HeLa) media supplemented with 10% heat inactivated fetal bovine serum (FBS), 100 units/mL of penicillin G and 100 μg/mL of streptomycin. The DMEM medium was additionally supplemented with 10 mM HEPES buffer, pH 7.55, 2 mM L-glutamine and 0.25 μg/mL of amphotericin B.
(§2) Viruses. NLRepRluc virus contains the Renilla luciferase marker in place of the viral nef gene. The proviral plasmid pNLRepRluc was constructed at Bristol-Myers Squibb, starting from a proviral NL4-3 clone (B subtype) that was obtained from the NIH AIDS Research and Reference Reagent Program. The parental recombinant wild type (WT) virus (NLRepRlucP373S) was derived from NLRepRluc and contains the additional substitution of P373 for serine in Gag (within the SP1 spacer), the most common 373 variation in subtype B. Other recombinant viruses (A364V, V370A/ΔT371 and the “T3325 triple” (T332S/V362I+HIV-1 protease R41G)) were generated by site-directed mutagenesis of plasmid pNLRepRlucP373S to introduce those amino acid substitutions in Gag and protease. Recombinant virus DNA was then used to generate virus stocks by transfection of 293T cells (Lipofectamine PLUS kit, Invitrogen). Titers of virus stocks were determined using a luciferase assay (Dual-Luciferase® Reporter Assay System, Promega, Milwaukee, Wis., USA) endpoint.
(§3) Multiple cycle drug susceptibility assay. Pellets of MT-2 cells were infected with NLRepRlucP373S Gag site-directed viruses, where initial inocula of the reporter strains were normalized using equivalent endpoint luciferase activity signals. Such cell-virus mixtures were resuspended in medium, incubated for 1-hour at 37° C./CO2, and added to compound containing 96-well plates at a final cell density of 10,000 cells per well. The test compounds were 3-fold serially diluted in 100% DMSO, and assayed at a final DMSO concentration of 1%. After 4-5 day incubation at 37° C./CO2, virus yields were determined by Renilla luciferase activity (Dual-Luciferase® Reporter Assay System, Promega). The endpoint luminescence was detected on a Wallac Trilux (PerkinElmer).
The 50% inhibitory concentrations (EC50S) were calculated by using the exponential form of the median effect equation where Percent Inhibition=1/[1+(EC50/drug conc.^m], where m is a parameter that reflects the slope of the concentration-response curve. Background was taken as the residual signal observed upon inhibition at the highest concentration of a control protease inhibitor, NFV (3 μM).
The 90% inhibitory concentrations (EC90S) were calculated by using the exponential form of the median effect equation where ECF=[(F/(100−F)]^1/H·EC50, where H is a parameter that reflects the slope of the concentration-response curve. Background was taken as the residual signal observed upon inhibition at the highest concentration of a control protease inhibitor, NFV (3 μM).

Assay [2] relates to A364V site directed mutant virus. The note with it: Human immunodeficiency virus 1, MT2, read-out: A364V EC50. As for the experimental part:
as §1, §2, §3
(§4) HIV-1 NL4-3 expressing Renilla luciferase gene was converted to the gag V370A/ΔT371 virus by site directed mutagenesis. A364V is a site directed mutant.
(§5) All three recombinant viruses were used as described above in the HIV cell culture assay for the NL4-3 virus.

The test system of assay [3] is gag V370A/ΔT371 virus. Particulars: Human immunodeficiency virus 1, MT2, read-out: V370A/ΔT371 EC50. The protocol: as §1, §2, §3, §4, §5
Assay [4] has as its system T332S/V362I/Pr R41G virus. The note with it: Human immunodeficiency virus 1, MT2, read-out: T332S/V362I/pr41G EC50. As for the experimental part:
as §1, §2, §3
T332sN362I/Pr R41G (N14.3, B Clade) virus′ was obtained as follows: Selection for resistance of HIV-1 strain […] virus with the HIV maturation inhibitor (MI) compound
At passage 8 virus was harvested and sequenced.
as §5

`C=C(C)[C@@H]1CC[C@]2(NCCN3CCS(=O)(=O)CC3)CC[C@]3(C)[C@H](CC[C@@H]4[C@@]5(C)CC=C(C6=CCC(COc7nsnc7C)(C(=O)O)CC6)C(C)(C)[C@@H]5CC[C@]43C)[C@@H]12` (stereo partly drawn) [Example 5, 4-((1R,3aS,5aR,5bR,7aR,11aS,11bR,13aR,13bR)-3a-((2-(1,1-dioxidothiomorpholino)ethyl)amino)-5a,5b,8,8,11a-pentamethyl-1-(prop-1-en-2-yl)-2,3,3a,4,5,5a,5b,6,7,7a,8,11,11a,11b,12,13,13a,13b-octadecahydro-1H-cyclopenta[a]chrysen-9-yl)-1-(((4-methyl-1,2,5-thiadiazol-3-yl)oxy)methyl)cyclohex-3-ene-1-carboxylic acid]: the EC50 in assay [1] is 3 nM; in assay [2] it was 15 nM; in assay [3] it was 15 nM; in assay [4], 15 nM.

As for `C=C(C)[C@@H]1CC[C@]2(NCCN3CCS(=O)(=O)CC3)CC[C@]3(C)[C@H](CC[C@@H]4[C@@]5(C)CC=C(C6=CCC(CCOc7cc(OC)ccn7)(C(=O)O)CC6)C(C)(C)[C@@H]5CC[C@]43C)[C@@H]12` (stereo partly drawn) [Example A32, 4-((1R,3aS,5aR,5bR,7aR,11aS,11bR,13aR,13bR)-3a-((2-(1,1-dioxidothiomorpholino)ethyl)amino)-5a,5b,8,8,11a-pentamethyl-1-(prop-1-en-2-yl)-2,3,3a,4,5,5a,5b,6,7,7a,8,11,11a,11b,12,13,13a,13b-octadecahydro-1H-cyclopenta[a]chrysen-9-yl)-1-(2-((4-methoxypyridin-2-yl)oxy)ethyl)cyclohex-3-ene-1-carboxylic acid], the EC50 in assay [1] is 6 nM; in assay [2], above 50 nM; in assay [3], above 50 nM; in assay [4], 419 nM.

As to `C=C(C)[C@@H]1CC[C@]2(NCCN3CCS(=O)(=O)CC3)CC[C@]3(C)[C@H](CC[C@@H]4[C@@]5(C)CC=C(C6=CC[C@](COc7ccccn7)(C(=O)O)CC6)C(C)(C)[C@@H]5CC[C@]43C)[C@@H]12` [Example 20, (R)-4-((1R,3aS,5aR,5bR,7aR,11aS,11bR,13aR,13bR)-3a-((2-(1,1-dioxidothiomorpholino)ethyl)amino)-5a,5b,8,8,11a-pentamethyl-1-(prop-1-en-2-yl)-2,3,3a,4,5,5a,5b,6,7,7a,8,11,11a,11b,12,13,13a,13b-octadecahydro-1H-cyclopenta[a]chrysen-9-yl)-1-((pyridin-2-yloxy)methyl)cyclohex-3-ene-1-carboxylic acid], the EC50 in assay [1], in assay [2], in assay [3] and in assay [4] was below 50 nM throughout.

Regarding `C=C(C)[C@@H]1CC[C@]2(NCCN3CCS(=O)(=O)CC3)CC[C@]3(C)[C@H](CC[C@@H]4[C@@]5(C)CC=C(C6=CC[C@](COc7ncccc7C(=O)OC)(C(=O)O)CC6)C(C)(C)[C@@H]5CC[C@]43C)[C@@H]12` [Example 27], the EC50 in assay [1], in assay [2], in assay [3] and in assay [4] was below 50 nM each time.

Turning to `C=C(C)[C@@H]1CC[C@]2(NCCN3CCS(=O)(=O)CC3)CC[C@]3(C)[C@H](CC[C@@H]4[C@@]5(C)CC=C(C6=CC[C@](COc7ccncn7)(C(=O)O)CC6)C(C)(C)[C@@H]5CC[C@]43C)[C@@H]12` [Example 21], the EC50 was below 50 nM in assay [1], below 50 nM in assay [2], above 50 nM in assay [3] and above 50 nM in assay [4].

Turning to `C=C(C)[C@@H]1CC[C@]2(NCCN3CCS(=O)(=O)CC3)CC[C@]3(C)[C@H](CC[C@@H]4[C@@]5(C)CC=C(C6=CCC(COc7cnnn7-c7ccccc7)(C(=O)O)CC6)C(C)(C)[C@@H]5CC[C@]43C)[C@@H]12` (stereo partly shown) [Example 16], the EC50 in assay [1] stood at 5 nM; in assay [2], 32 nM; in assay [3] it was 30 nM; in assay [4] it was 30 nM.

For the molecule `C=C(C)[C@@H]1CC[C@]2(NCCN3CCS(=O)(=O)CC3)CC[C@]3(C)[C@H](CC[C@@H]4[C@@]5(C)CC=C(C6=CCC(COc7cnnn7CC)(C(=O)O)CC6)C(C)(C)[C@@H]5CC[C@]43C)[C@@H]12` (stereo partly shown) [Example 7], the EC50 in assay [1] came to 2 nM; in assay [2], 95 nM; in assay [3] it was 192 nM; in assay [4] it was 192 nM.

`C=C(C)[C@@H]1CC[C@]2(NCC[C@]3(O)CC[C@@H](S(C)(=O)=O)CC3)CC[C@]3(C)[C@H](CC[C@@H]4[C@@]5(C)CC=C(C6=CCC(COc7ccccn7)(C(=O)O)CC6)C(C)(C)[C@@H]5CC[C@]43C)[C@@H]12` (stereo partly drawn) [Example A1, 4-((1R,3aS,5aR,5bR,7aR,11aS,11bR,13aR,13bR)-3a-((2-((1s,4R)-1-hydroxy-4-(methylsulfonyl)cyclohexyl)ethyl)amino)-5a,5b,8,8,11a-pentamethyl-1-(prop-1-en-2-yl)-2,3,3a,4,5,5a,5b,6,7,7a,8,11,11a,11 b,12,13,13a,13b-octadecahydro-1H-cyclopenta[a]chrysen-9-yl)-1-((pyridin-2-yloxy)methyl)cyclohex-3-enecarboxylic acid]: the EC50 amounted to 5 nM in assay [1], 9 nM in assay [2], 26 nM in assay [3] and 26 nM in assay [4].

Take `C=C(C)[C@@H]1CC[C@]2(NCCN3CCS(=O)(=O)CC3)CC[C@]3(C)[C@H](CC[C@@H]4[C@@]5(C)CC=C(C6=CCC(CCOc7ncccc7C(F)(F)F)(C(=O)O)CC6)C(C)(C)[C@@H]5CC[C@]43C)[C@@H]12` (stereo partly drawn) [Example A30, 4-((1R,3aS,5aR,5bR,7aR,11aS,11bR,13aR,13bR)-3a-((2-(1,1-dioxidothiomorpholino)ethyl)amino)-5a,5b,8,8,11a-pentamethyl-1-(prop-1-en-2-yl)-2,3,3a,4,5,5a,5b,6,7,7a,8,11,11a,11b,12,13,13a,13b-octadecahydro-1H-cyclopenta[a]chrysen-9-yl)-1-(2-((3-(trifluoromethyl)pyridin-2-yl)oxy)ethyl)cyclohex-3-ene-1-carboxylic acid]: the EC50 was 13 nM in assay [1], 3000 nM in assay [2], 223 nM in assay [3] and 223 nM in assay [4].

Consider `C=C(C)[C@@H]1CC[C@]2(NCCN3CCS(=O)(=O)CC3)CC[C@]3(C)[C@H](CC[C@@H]4[C@@]5(C)CC=C(C6=CC[C@@](COc7ccccn7)(C(=O)O)CC6)C(C)(C)[C@@H]5CC[C@]43C)[C@@H]12` [Example 31, (S)-4-((1R,3aS,5aR,5bR,7aR,11aS,11bR,13aR,13bR)-3a-((2-(1,1-dioxidothiomorpholino)ethyl)amino)-5a,5b,8,8,11a-pentamethyl-1-(prop-1-en-2-yl)-2,3,3a,4,5,5a,5b,6,7,7a,8,11,11a,11 b,12,13,13a,13b-octadecahydro-1H-cyclopenta[a]chrysen-9-yl)-1-((pyridin-2-yloxy)methyl)cyclohex-3-ene-1-carboxylic acid], for which the EC50 in assay [1] came to 2 nM; in assay [2], 6 nM; in assay [3] it was 9 nM; in assay [4], 9 nM.
